Target: T1, human TPO receptor (hTPOR) (Homo sapiens, UniProt P40238)
T1 construct: expressed in transfected cells; host or cells: BaF-B03 (murine IL-3 dependent cell line)
T1 sequence (P40238 26-635): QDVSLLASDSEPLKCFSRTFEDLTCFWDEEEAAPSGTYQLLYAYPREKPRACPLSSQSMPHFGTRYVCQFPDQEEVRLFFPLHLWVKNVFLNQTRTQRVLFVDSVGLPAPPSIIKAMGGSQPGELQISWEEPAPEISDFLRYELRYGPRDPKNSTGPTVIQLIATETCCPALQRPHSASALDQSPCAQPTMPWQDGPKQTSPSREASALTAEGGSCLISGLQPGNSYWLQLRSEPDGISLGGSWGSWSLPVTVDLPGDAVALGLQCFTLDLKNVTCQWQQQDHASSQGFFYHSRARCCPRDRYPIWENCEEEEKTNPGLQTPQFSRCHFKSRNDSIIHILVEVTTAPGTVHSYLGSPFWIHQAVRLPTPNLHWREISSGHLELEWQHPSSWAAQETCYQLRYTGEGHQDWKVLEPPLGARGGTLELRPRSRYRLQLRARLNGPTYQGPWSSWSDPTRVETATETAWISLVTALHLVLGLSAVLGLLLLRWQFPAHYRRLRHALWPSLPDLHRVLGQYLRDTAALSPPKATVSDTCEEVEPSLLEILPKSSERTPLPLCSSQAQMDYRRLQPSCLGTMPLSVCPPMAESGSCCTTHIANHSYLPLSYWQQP
Test: Proliferation of TPO dependent BaF/hTPOR cells, WST-1, thrombopoietic activity ED50 (Test Example 3)
Type: cell-based
Settings: 20 h incubation then WST-1 4 h, absorbance at 450 nm
Source text: FIG. 2: The chart represents proliferation of the human TPO dependent cells bearing human TPO receptors by the present invention compound, wherein the x-axis is concentration of the present invention compound, and the y-axis is the absorbance as an indicator of cell proliferation. Open circles indicate a response of human TPO, and closed circles indicate a response of the compound (B-1).
The TPO dependent BaF/hTPOR cell line which was established by introducing human TPO receptor (hTPOR) into BaF-B03 cells according to Collins et al (J. Cell. Physiol., 137:293-298 (1988)) was used to test the thrombopoietic activity of the present compound. The DNA sequences and encoded peptide sequences for human hTPOR have been described by Vigon et al (Proc. Natl. Acad. Sci. USA, 89:5640-5644 (1992)). TPO dose not have any ability to support proliferation of interleukin-3 dependent parental cell line BaF-B03. BAF/hTPOR cells were maintained in RPMI medium and WEHI-3B conditioned medium as a source of murine interleukin-3 (IL-3). These cells were washed and resuspended in RPMI medium without a source of murine IL-3 and seeded into each well of 96-well microtiter plates at a density of 5×10^4 cells per well in the absence or presence of various concentration of hTPO or the present compound. After incubation at 37° C. for 20 hours in the 5% CO2 incubator, 10% WST-1 reagent (Takara Biomedicals, Japan) was added to each wells and the cells were further incubated for 4 hours. Effect of the present compound on the growth of BAF/mTPOR cell line which was established by introducing murine TPO receptor (mTPOR) into BAF-B03 cells is shown in FIG. 3. Table 8 exemplifies the ED50 for tested compounds of the present invention, wherein the ED50 is the half concentration of the concentration showing the maximum thrombopoietic activity.

EC50	SMILES
150 nM	CCOC(=O)/C(C)=C/c1ccc(C(=O)Nc2nc(-c3ccc(C(F)(F)F)cc3)cs2)cc1 [Compound A-25]
66 nM	O=C(O)/C(Cl)=C/c1ccc(C(=O)Nc2nc(-c3cccc(-c4ccccc4)c3F)cs2)cc1 [Compound A-80]
257 nM	NC(=O)/C=C/c1ccc(C(=O)Nc2nc(-c3ccc(Cl)c(Cl)c3)cs2)cc1 [Compound B-2]
110 nM	O=C(O)/C(Cl)=C/c1ccc(C(=O)Nc2nc(-c3cc(F)c(F)c(F)c3F)cs2)cc1 [Compound A-77]
39 nM	CCOC(=O)/C(Cl)=C/c1ccc(C(=O)Nc2nc(-c3cccc(C(F)(F)F)c3)cs2)cc1 [Compound A-41]
400 nM	CCOC(=O)C(F)Cc1ccc(C(=O)Nc2nc(-c3ccc(Cl)c(Cl)c3)cs2)cc1 (centres unmarked) [Compound G-7]
276 nM	CC(=Cc1ccc(C(=O)Nc2nc(-c3ccc(Cl)c(Cl)c3)cs2)cc1)c1ncc[nH]1 [Compound D-1]
729 nM	C/C(=C\c1ccc(C(=O)Nc2nc(-c3ccc(Cl)c(Cl)c3)cs2)cc1)C(=O)NC(C)(C)C [Compound B-39]
305 nM	C/C(=C\c1ccc(C(=O)Nc2nc(-c3ccc(Cl)c(Cl)c3)cs2)cc1)C(=O)NCc1ccc(F)cc1 [Compound B-14]
71 nM	O=C(O)/C(Cl)=C/c1ccc(C(=O)Nc2nc(-c3cccc(Br)c3F)cs2)cc1 [Compound A-81]
236 nM	C/C(=C\c1ccc(C(=O)Nc2nc(-c3ccc(Cl)c(Cl)c3)cs2)cc1)C(=O)Nc1nccs1 [Compound B-11]
77 nM	Cc1cccc(-c2csc(NC(=O)c3ccc(/C=C(\Cl)C(=O)O)cc3)n2)c1F [Compound A-83]
430 nM	CC(Cc1ccc(C(=O)Nc2nc(-c3ccc(Cl)c(Cl)c3)cs2)cc1)C(=O)O (centres unmarked) [Compound G-3]
256 nM	COc1cc(C(=O)Nc2nc(-c3ccc(Cl)c(Cl)c3)cs2)ccc1C#CC(=O)O [Compound L-4]
610 nM	C/C(=C\c1ccc(C(=O)Nc2nc(-c3cccc(OC(F)(F)F)c3)cs2)cc1)C(=O)O [Compound A-20]
529 nM	CC(C(=O)O)=C(C)c1ccc(C(=O)Nc2nc(-c3ccc(Cl)c(Cl)c3)cs2)cc1 [Compound A-8]
240 nM	O=C(Nc1nc(-c2ccc(Cl)c(Cl)c2)cs1)c1ccc(CC(Cl)C(=O)O)cc1 (centres unmarked) [Compound G-4]
260 nM	COC(=O)C(Cl)Cc1ccc(C(=O)Nc2nc(-c3ccc(Cl)c(Cl)c3)cs2)cc1 (centres unmarked) [Compound G-5]
204 nM	CC(C)Cc1ccc(-c2csc(NC(=O)c3ccc(/C=C(\Cl)C(=O)O)cc3)n2)cc1 [Compound A-64]
177 nM	C/C(=C\c1ccc(C(=O)Nc2nc(-c3ccc(Cl)c(Cl)c3)cs2)cc1)C(=O)Nc1ccccc1 [Compound B-30]

EC50	SMILES
245 nM	O=C(O)/C(Cl)=C/c1ccc(C(=O)Nc2nc(-c3ccc(F)cc3)cs2)cc1 [Compound A-38]
565 nM	C/C(=C\c1ccc(C(=O)Nc2nc(-c3ccc(Cl)c(Cl)c3)cs2)cc1)C(=O)NCCC(=O)O [Compound B-28]
17 nM	O=C(O)/C(Cl)=C/c1ccc(C(=O)Nc2nc(-c3ccc(Cl)c(Cl)c3)cs2)cc1 [Compound A-14]
472 nM	O=C(O)/C(Cl)=C/c1ccc(C(=O)Nc2nc(-c3ccc4c(c3)CCO4)cs2)cc1 [Compound A-74]
99 nM	C/C(=C\c1ccc(C(=O)Nc2nc(-c3cccc(C(F)(F)F)c3)cs2)cc1)C(=O)O [Compound A-28]
28 nM	O=C(O)/C(Cl)=C/c1ccc(C(=O)Nc2nc(-c3cc(C(F)(F)F)cc(C(F)(F)F)c3)cs2)cc1 [Compound A-65]
23 nM	CCCCCc1cccc(-c2csc(NC(=O)c3ccc(/C=C(\Cl)C(=O)O)cc3)n2)c1F [Compound A-84]
425 nM	COc1cccc(-c2csc(NC(=O)c3ccc(/C=C(\Cl)C(=O)O)cc3)n2)c1 [Compound A-52]
119 nM	O=C(O)/C(Cl)=C/c1ccc(C(=O)Nc2nc(-c3cccc(F)c3F)cs2)cc1 [Compound A-72]
197 nM	C/C(=C\c1ccc(C(=O)Nc2nc(-c3ccc(Cl)c(Cl)c3)cs2)cc1)C(=O)NCc1cccs1 [Compound B-15]
143 nM	O=C(O)C#Cc1ccc(C(=O)Nc2nc(-c3ccc(Cl)c(Cl)c3)cs2)cc1 [Compound L-2]
288 nM	C/C(=C\c1ccc(C(=O)Nc2nc(-c3ccc(F)cc3)cs2)cc1)C(=O)O [Compound A-24]
190 nM	C=CCNC(=O)/C(C)=C/c1ccc(C(=O)Nc2nc(-c3ccc(Cl)c(Cl)c3)cs2)cc1 [Compound B-41]
50 nM	O=C(O)/C(Cl)=C/c1ccc(C(=O)Nc2nc(-c3cccc(C(F)(F)F)c3)cs2)cc1 [Compound A-42]
289 nM	CCOC(=O)/C(Cl)=C/c1ccc(C(=O)Nc2nc(-c3cccc(F)c3)cs2)cc1 [Compound A-29]
150 nM	CCNC(=O)/C(=C/c1ccc(C(=O)Nc2nc(-c3ccc(Cl)c(Cl)c3)cs2)cc1)CC [Compound B-19]
182 nM	C/C(=C\c1ccc(C(=O)Nc2nc(-c3ccc(Cl)c(Cl)c3)cs2)cc1)C(=O)NCc1ccco1 [Compound B-16]
243 nM	O=C(O)/C(Cl)=C/c1ccc(C(=O)Nc2nc(-c3ccc(F)c(Br)c3F)cs2)cc1 [Compound A-86]
198 nM	CC(=Cc1ccc(C(=O)Nc2nc(-c3ccc(Cl)c(Cl)c3)cs2)cc1)S(N)(=O)=O [Compound F-3]
37 nM	CCCCc1cccc(-c2csc(NC(=O)c3ccc(/C=C(\Cl)C(=O)O)cc3)n2)c1 [Compound A-55]

EC50	SMILES
113 nM	O=C(O)/C(Cl)=C/c1ccc(C(=O)Nc2nc(-c3ccccc3F)cs2)cc1 [Compound A-50]
321 nM	COC(=O)C#Cc1ccc(C(=O)Nc2nc(-c3ccc(Cl)c(Cl)c3)cs2)cc1OC [Compound L-3]
96 nM	CCOC(=O)/C(Cl)=C/c1ccc(C(=O)Nc2nc(-c3ccc(F)cc3)cs2)cc1 [Compound A-37]
89 nM	Cc1ccc(-c2csc(NC(=O)c3ccc(/C=C(\Cl)C(=O)O)cc3)n2)c(F)c1 [Compound A-70]
207 nM	COc1ccc(-c2csc(NC(=O)c3ccc(/C=C(\Cl)C(=O)O)cc3)n2)c(F)c1 [Compound A-61]
211 nM	Cn1cc(-c2csc(NC(=O)c3ccc(/C=C(\Cl)C(=O)O)cc3)n2)c2ccccc21 [Compound A-66]
98 nM	C/C(=C\c1ccc(C(=O)Nc2nc(-c3ccc(C(F)(F)F)cc3)cs2)cc1)C(=O)O [Compound A-26]
346 nM	CNC(=O)/C(C)=C/c1ccc(C(=O)Nc2nc(-c3ccc(F)c(F)c3)cs2)cc1 [Compound B-26]
164 nM	CCCCOc1ccc(-c2csc(NC(=O)c3ccc(/C=C(\Cl)C(=O)O)cc3)n2)cc1 [Compound A-59]
207 nM	C/C(=C\c1ccc(C(=O)Nc2nc(-c3ccc(Cl)c(Cl)c3)cs2)cc1)C(=O)Nc1cccnc1 [Compound B-12]
710 nM	Cc1ccc(C)c(-c2csc(NC(=O)c3ccc(/C=C(\Cl)C(=O)O)cc3)n2)c1 [Compound A-87]
96 nM	CCOC(=O)/C(Cl)=C/c1ccc(C(=O)Nc2nc(-c3ccc(F)c(F)c3)cs2)cc1 [Compound A-35]
84 nM	CCNC(=O)C(C)=Cc1ccc(C(=O)Nc2nc(-c3ccc(Cl)c(Cl)c3)cs2)cc1 [Compound B-6]
89 nM	CNC(=O)C(C)=Cc1ccc(C(=O)Nc2nc(-c3ccc(Cl)c(Cl)c3)cs2)cc1 [Compound B-4]
360 nM	CC(c1ccc(C(=O)Nc2nc(-c3ccc(Cl)c(Cl)c3)cs2)cc1)C(Cl)C(=O)O (centres unmarked) [Compound G-8]
150 nM	CC/C(=C\c1ccc(C(=O)Nc2nc(-c3ccc(Cl)c(Cl)c3)cs2)cc1)C(=O)NC [Compound B-18]
370 nM	O=C(Nc1nc(-c2ccc(Cl)c(Cl)c2)cs1)c1ccc(CC(F)C(=O)O)cc1 (centres unmarked) [Compound G-6]
303 nM	CC(=O)NNC(=O)/C(C)=C/c1ccc(C(=O)Nc2nc(-c3ccc(Cl)c(Cl)c3)cs2)cc1 [Compound B-43]
504 nM	CCOC(=O)C(C)=Cc1ccc(C(=O)Nc2nc(-c3ccc(F)c(F)c3)cs2)cc1 [Compound A-9]

From US20100022542A1, “COMPOUNDS EXHIBITING THROMBOPOIETIN RECEPTOR AGONISM” (Shionogi & Co., Ltd., priority 2000, published 2010)
